Laboratory results published in article PMC7301643 (Biochemistry, 2020).

What was measured:
[1] = target: T1, capping protein (CP, CPα1β2) (Mus musculus, UniProt P47753+P47757); experiment: Fluorescence anisotropy titration of CP into TAMRA-labeled CPI-motif peptide; assay type: binding
[2] = target: T1, capping protein (CP, CPα1β2); experiment: Isothermal calorimetry; assay type: binding; conditions: for ΔG°obs, ITC: ΔG° = −RT ln Ka
CP:F-actin barbed end = CP:F-actin barbed end (Mus musculus, UniProt P47753+P47757); experiment: Pyrene-actin polymerization; assay type: biochemical, Oryctolagus cuniculus (actin); conditions: at concentrations higher than 1 μM
CP bound to F-actin = CP bound to F-actin (Mus musculus, UniProt Q5RKN9+Q923G3); experiment: Kd for CPI binding to CP bound to F-actin, calculated from thermodynamic cycle; parameters: species or system Oryctolagus cuniculus (actin)
[3] = independent experiment 1 (first line), 25 °C, pH 7.2
[4] = independent experiment 2 (second line)

Ac-WASHCAP-NH2 [WASHCAP]
Kd [1]: 0.0085 ± 0.0008 µM
N (stoichiometry), ITC [2, 3]: 0.985 ± 0.004
TΔS°obs, ITC [2, 3]: -59 kJ/mol
ΔH°obs, ITC [2, 3]: -103 ± 0.42 kJ/mol
ΔG°obs, ITC [2, 3]: -44.18 ± 0.17 kJ/mol
N (stoichiometry), ITC [2, 4]: 0.971 ± 0.009
TΔS°obs, ITC [2, 4]: -76.6 kJ/mol
ΔH°obs, ITC [2, 4]: -121 ± 1.7 kJ/mol
ΔG°obs, ITC [2, 4]: -44.35 ± 0.418 kJ/mol
interference of peptide with actin polymerization (CP:F-actin barbed end): interfered with polymerization
Kd (CP bound to F-actin): 0.11 ± 0.01 µM
